Results published in US20240366779A1, “SELECTIVE DRUG RELEASE FROM INTERNALIZED CONJUGATES OF BIOLOGICALLY ACTIVE COMPOUNDS” (priority 2021, published 2024).
Numbered stars: 1 amine (or outer) side, 2 acyl side, 3 side chain; on linkers, the order of the positions; unused ones are H or OH. Square brackets hold non-standard residues; d marks the D form. Ends that are not written are not given here. Peptide text beside a SMILES is read from it. * marks the point of attachment. Dolaproine = CO[C@@H]([C@@H]1CCCN1)[C@@H](C)C(=O)O; Propanoyl(3-maleimido) = O=C1C=CC(=O)N1CCC(=O)*; Dil = CC[C@H](C)[C@H](NC)[C@@H](CC(=O)O)OC; Gla = N[C@@H](CC(C(=O)O)C(=O)O)C(=O)O; PABC = O=C(OCc1ccc(N[*:1])cc1)[*:2]; X1 = C[C@@H](N*)[C@@H](O)c1ccccc1; Met(O) = CS(=O)CC[C@H](N)C(=O)O; Cit = NC(=O)NCCC[C@H](N)C(=O)O; NMeV = CN[C@H](C(=O)O)C(C)C; Aib = CC(C)(N)C(=O)O

Tests used:
HPAFII cells = assay: In vitro cytotoxicity of Ag1 ADCs (CellTiter-Glo, 96 h); type: cell-based; conditions: Tables 3a and 3b, in words
Experimental: In vitro cytotoxicity. The cytotoxicity of a tripeptide-based Antibody Drug Conjugate was measured by a cell proliferation assay employing the protocol described in Promega Corp. Technical Bulletin TB288; and Mendoza et al., 2002, Cancer Res. 62:5485-5488), the methods of which are specifically incorporated by reference herein. Briefly, an aliquot of 40 μl of cell culture containing about 400 cells in medium is deposited in each well of a 384-well, opaque-walled plate. A 10 μL aliquot of free drug or Ligand-Drug Conjugate is added to the experimental wells and incubated for 96 h and are then equilibrated to room temperature for approximately 30 minutes whereupon a volume of CellTiter-Glo™ reagent equal to the volume of cell culture medium present in each well is added. The contents are mixed for 2 minutes on an orbital shaker to induce cell lysis and the plate is incubated at room temperature for 10 minutes to stabilize the luminescence signal for recordation.
The italicized values in Tables 3, 3a, and 3b indicate the percentage of cells remaining after 96 hr incubation at the maximum concentration of drug added. For convenience the numbering for the library members of Tables 2 and 2A are retained for the corresponding Drug linker compounds that are incorporated into the ADC of Tables 3, 3a, and 3b.

[1] = system: CD30-expressing ALCL and HL cell lines (DEL, Karpas, KMH2, L428, L540cy); assay: In vitro cytotoxicity study of cAC10 ADCs (CellTiter-Glo, 96 hours); type: cell-based; conditions: FIG. 39A-E
Experimental: ALCL and HL cell lines (DEL, DELBVR8F9, Karpas, KMH2, L428, AND L540cy) were plated in 150 uL complete growth media in 96-well, clear-bottomed, black-walled tissue culture treated plates (Corning). Cell plates were placed at 37° C. and 5% CO2 overnight to allow cells to equilibrate. The ADCs were thawed, and 4×8-point serial dilutions were prepared in RPMI-1640+10% fetal bovine serum (FBS). Fifty uL of each dilution were then added to each cell plate in triplicate. Treated cells were incubated at 37° C. and 5% CO2 for 96 hours. Cell viability was assayed using CellTiter-Glo® Reagent (PROMEGA). Raw data were analyzed in Graphpad Prism (San Diego, CA) using a nonlinear, 4-parameter curve fit model [Y=Bottom+(Top−Bottom)/(1+10^((Log EC50−X)*HillSlope))].

neutrophil elastase = target: T1, neutrophil elastase (Homo sapiens, UniProt P08246); assay: Neutrophil elastase assay of 8-load ADCs (QToF MS); type: biochemical; conditions: 8-load ADC, 37 C, 3 h; FIG. 6A
T1 sequence (P08246 30-267): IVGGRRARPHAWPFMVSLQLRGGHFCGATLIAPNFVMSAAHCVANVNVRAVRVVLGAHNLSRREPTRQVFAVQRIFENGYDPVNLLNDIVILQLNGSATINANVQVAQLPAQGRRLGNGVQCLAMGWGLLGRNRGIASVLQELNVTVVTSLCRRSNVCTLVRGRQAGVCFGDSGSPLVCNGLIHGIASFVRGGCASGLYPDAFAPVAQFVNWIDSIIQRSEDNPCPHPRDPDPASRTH
Experimental: To a mixture of 8-load ADC (5 ug), buffer (100 mM tris, 75 mM NaCl, pH 7.5; final concentration), and neutrophil elastase (100 ng) was added water to 20 uL. The reaction was incubated at 37 C for 3 h and then immediately analyzed by a QToF mass spectrometer.

[2] = system: neutrophils and reticulocytes (bone marrow); assay: In vivo bone marrow toxicity of non-binding h00 conjugates (neutrophil and reticulocyte counts, tolerability); conditions: rat, in words
Source text: Toxicity Determinations. Each tripeptide-based Drug Linker compound was reacted with a reduced non-binding antibody to provide a non-binding control ADC and injected i.v. into female Sprague Dawley rats at various concentrations. Animals were euthanized on day 4 or 28 post dose.
Having shown that ADC efficacy has been at least retained on replacing the dipeptide with most of the selected tripeptide sequences, differences in in vivo cytotoxicity against normal bone marrow tissue was explored by replacing the antibody targeting the Ag1 antigen with a non-binding control (h00) antibody. Each of the resulting non-targeting conjugates were then administered at 10 mg/Kg to rats, whose blood were analyzed at day 5 post-administration for neutrophil and reticulocyte counts as a proxy for bone marrow toxicity compared to sham treated animals. […]
A subset of non-targeting conjugates were administered at higher doses to rats to determine the impact on bone marrow depletion. Blood from the doses rats were analyzed at day 8 and day 22 post-administration for neutrophil (FIG. 2C) and reticulocyte (FIG. 3C) counts as a proxy for bone marrow toxicity compared to sham treated animals. […]

[3] = system: normal human bone marrow homogenate; assay: Fluorescence assay: proteolysis of tripeptide library by normal tissue homogenate; type: biochemical; conditions: Table 1A, normalized fluorescence at final time point (275-315 min)
Experimental: (§1) Fluorescence assay. To a 384 well plate was added a mixture of tumor or normal tissue homogenate and citrate buffer (100 mM, pH 4.5; 9 μL) followed by a fluorescently labelled library compound (1 μL; dissolved in 50% MeCN). The reaction was incubated at 37° C. and fluorescence (330 nm excitation, 450 nm emission) was detected several times over a 6-hr. period. The fluorescence fold change was determined by dividing the fluorescence value at each time point with the background fluorescence when no homogenate was added.
Tissue Homogenization. Normal tissue or tumor tissue from mouse xenografts were suspended in buffer (50 mM Tris, 150 mM KCl, pH 7.0) and added to a tube containing Matrix D lysing beads (mpbio). The tissue was homogenized with a Precellys™ 24 homogenizer. The homogenized sample was centrifuged at 1000×g for 10 min and the resulting supernatant was collected then frozen at −80° C. until further use.
The normalized normal tissue fluorescence values are from proteolysis by normal human bone marrow.
That value was then normalized for each peptide in each homogenate by dividing it by the average value for that homogenate. […] The normalized normal tissue values of Table 1 were similarly calculated using homogenized bone marrow.

[4] = system: tumor tissue homogenates from HPAF-II, Ramos, SK-Mel-5 and SU-DHL-4 xenograft models; assay: Fluorescence assay: proteolysis of tripeptide library by tumor tissue homogenate; type: biochemical, mouse; conditions: Table 1A; normalized fluorescence averaged across 4 tumor homogenates
Experimental: as §1
Tissue Homogenization. […]
The normalized fluorescence value for tumor homogenate proteolysis is an averaged value for tumor tissue homogenates derived from four mouse xenograft models.
That value was then normalized for each peptide in each homogenate by dividing it by the average value for that homogenate. […] The normalized tumor tissue values of Table 1 were then determined by averaging the normalized fluorescence value for each peptide across all 4 cancer homogenates that were tested. […] The normalized normal tissue values of Table 1 were similarly calculated using homogenized bone marrow. The Tumor/Normal ratios of Table 1A were determined by dividing the normalized tumor tissue values by the normalized normal tissue values.

Compound	cytotoxicity relative to comparator dipeptide-based ADC (1) (HPAFII cells)	efficacy relative to comparator dipeptide-based ADC (1) (HPAFII cells)	further results
CC[C@H](C)[C@@H]([C@@H](CC(=O)N1CCC[C@H]1[C@H](OC)[C@@H](C)C(=O)N[C@H](C)[C@@H](O)c1ccccc1)OC)N(C)C(=O)[C@@H](NC(=O)[C@H](C(C)C)N(C)C(=O)OCc1ccc(NC(=O)[C@H](CCCNC(N)=O)NC(=O)[C@H](C)NC(=O)[C@@H](CC(C)C)NC(=O)CCN2C(=O)C=CC2=O)cc1)C(C)C [Compound 8] ({Propanoyl(3-maleimido)}-[dL]A[Cit][PABC][NMeV]V[Dil][Dolaproine]-X1)	less cytotoxic	similarly efficacious	
CC[C@H](C)[C@@H]([C@@H](CC(=O)N1CCC[C@H]1[C@H](OC)[C@@H](C)C(=O)N[C@H](C)[C@@H](O)c1ccccc1)OC)N(C)C(=O)[C@@H](NC(=O)[C@H](C(C)C)N(C)C(=O)OCc1ccc(NC(=O)[C@H](CCC(=O)O)NC(=O)[C@H](C)NC(=O)[C@@H](C)NC(=O)CCN2C(=O)C=CC2=O)cc1)C(C)C [Compound 22] ({Propanoyl(3-maleimido)}-[dA]AE[PABC][NMeV]V[Dil][Dolaproine]-X1)	less cytotoxic	similarly efficacious	
CC[C@H](C)[C@@H]([C@@H](CC(=O)N1CCC[C@H]1[C@H](OC)[C@@H](C)C(=O)N[C@H](C)[C@@H](O)c1ccccc1)OC)N(C)C(=O)[C@@H](NC(=O)[C@H](C(C)C)N(C)C(=O)OCc1ccc(NC(=O)[C@H](CC(=O)O)NC(=O)[C@H](C)NC(=O)[C@@H](CC(C)C)NC(=O)CCN2C(=O)C=CC2=O)cc1)C(C)C [Compound 24] ({Propanoyl(3-maleimido)}-[dL]AD[PABC][NMeV]V[Dil][Dolaproine]-X1)	less cytotoxic	similarly efficacious	
CC[C@H](C)[C@@H]([C@@H](CC(=O)N1CCC[C@H]1[C@H](OC)[C@@H](C)C(=O)N[C@H](C)[C@@H](O)c1ccccc1)OC)N(C)C(=O)[C@@H](NC(=O)[C@H](C(C)C)N(C)C(=O)OCc1ccc(NC(=O)[C@H](CC(C(=O)O)C(=O)O)NC(=O)[C@H](C)NC(=O)[C@@H](CC(C)C)NC(=O)CCN2C(=O)C=CC2=O)cc1)C(C)C [Compound 26] ({Propanoyl(3-maleimido)}-[dL]A[Gla][PABC][NMeV]V[Dil][Dolaproine]-X1)	less cytotoxic	similarly efficacious	
CC[C@H](C)[C@@H]([C@@H](CC(=O)N1CCC[C@H]1[C@H](OC)[C@@H](C)C(=O)N[C@H](C)[C@@H](O)c1ccccc1)OC)N(C)C(=O)[C@@H](NC(=O)[C@H](C(C)C)N(C)C(=O)OCc1ccc(NC(=O)[C@H](CCC(=O)O)NC(=O)[C@H](CO)NC(=O)[C@H](Cc2ccccc2)NC(=O)CCN2C(=O)C=CC2=O)cc1)C(C)C [Compound 30] ({Propanoyl(3-maleimido)}-FSE[PABC][NMeV]V[Dil][Dolaproine]-X1)	less cytotoxic	similarly efficacious	
CC[C@H](C)[C@@H]([C@@H](CC(=O)N1CCC[C@H]1[C@H](OC)[C@@H](C)C(=O)N[C@H](C)[C@@H](O)c1ccccc1)OC)N(C)C(=O)[C@@H](NC(=O)[C@@H](NC)C(C)C)C(C)C [SGN-1010, MMAE] (H-[NMeV]V[Dil][Dolaproine]-X1)			cytotoxic activity (cell viability) [1]: all cell lines are sensitive
CC[C@H](C)[C@@H]([C@@H](CC(=O)N1CCC[C@H]1[C@H](OC)[C@@H](C)C(=O)N[C@H](C)[C@@H](O)c1ccccc1)OC)N(C)C(=O)[C@@H](NC(=O)[C@H](C(C)C)N(C)C(=O)OCc1ccc(NC(=O)[C@H](CCC(=O)O)NC(=O)[C@H](C)NC(=O)[C@@H](CC(C)C)NC(=O)CCN2C(=O)C=CC2=O)cc1)C(C)C [compound 5, mp-dLAE-PABC-MMAE] ({Propanoyl(3-maleimido)}-[dL]AE[PABC][NMeV]V[Dil][Dolaproine]-X1)			percentage of drug cleaved from the heavy chain by neutrophil elastase (neutrophil elastase): lower than that found for non-targeted ADC 37
CC[C@H](C)[C@@H]([C@@H](CC(=O)N1CCC[C@H]1[C@H](OC)[C@@H](C)C(=O)N[C@H](C)[C@@H](O)c1ccccc1)OC)N(C)C(=O)[C@@H](NC(=O)[C@H](C(C)C)N(C)C(=O)OCc1ccc(NC(=O)[C@H](CCC(=O)O)NC(=O)C(C)(C)NC(=O)[C@@H](CC(C)C)NC(=O)CCN2C(=O)C=CC2=O)cc1)C(C)C [compound 38] ({Propanoyl(3-maleimido)}-[dL][Aib]E[PABC][NMeV]V[Dil][Dolaproine]-X1)	less cytotoxic	less cytotoxic and efficacious	toxicity to bone marrow [2]: less toxic to rat bone marrow
[dL]-Leu-[Met(O)] [DLeu-Leu-Met(O)]			Normalized Normal Tissue [3]: 0.66; Normalized Tumor Tissue [4]: 1.70
